Assay results taken from US10206907B2, “Compounds useful for the treatment of degenerative and inflammatory diseases” (GALAPAGOS NV, priority 2008, dated 2019).

Columns and labels:
[1] = molecular target: Recombinant human JAK1 catalytic domain (Homo sapiens (Human), UniProt P23458); assay: JAK1 inhibition assay; assay type: biochemical; conditions: semi-quantitative score
Summary of the method: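 IC50 values come from dose-response series, with each point expressed as percent inhibition of cpm. Vehicle sets full activity and 10 μM staurosporine sets background. Incorporated radioactivity counted by scintillation after washing with 75 mM phosphoric acid.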

[2] = molecular target: Recombinant human JAK2 catalytic domain (Homo sapiens (Human), UniProt O60674); assay: JAK2 inhibition assay; assay type: biochemical; conditions: semi-quantitative score
Chain of Recombinant human JAK2 catalytic domain (O60674 808-1132): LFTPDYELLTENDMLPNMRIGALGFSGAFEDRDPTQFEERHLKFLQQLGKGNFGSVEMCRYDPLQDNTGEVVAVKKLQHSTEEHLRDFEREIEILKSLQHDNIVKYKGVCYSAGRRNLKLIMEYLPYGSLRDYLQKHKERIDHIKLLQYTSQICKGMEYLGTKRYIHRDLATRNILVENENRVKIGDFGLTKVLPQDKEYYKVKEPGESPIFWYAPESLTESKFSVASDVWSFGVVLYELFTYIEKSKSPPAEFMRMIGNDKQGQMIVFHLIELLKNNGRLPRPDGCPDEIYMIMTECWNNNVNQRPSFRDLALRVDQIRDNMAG
Procedure: After 90 min at 30° C., reactions were stopped by adding of 25 μL/well of 150 mM phosphoric acid. […] Plates were washed 6 times with 300 μL per well of a 75 mM phosphoric acid solution and the bottom of the plates was sealed. 40 μL/well of Microscint-20 was added, the top of the plates was sealed and readout was performed using the Topcount (Perkin Elmer). Kinase activity was calculated by subtracting counts per minute (cpm) obtained in the presence of a positive control inhibitor (10 μM staurosporine) from cpm obtained in the presence of vehicle. The ability of a test compound to inhibit this activity was determined as: Percentage inhibition=((cpm determined for sample with test compound present−cpm determined for sample with positive control inhibitor) divided by (cpm determined in the presence of vehicle−cpm determined for sample with positive control inhibitor))*100%.
Dose dilution series were prepared for the compounds enabling the testing of dose-response effects in the JAK2 assay and the calculation of the IC50 for each compound.

Chain of Recombinant human JAK1 catalytic domain (P23458 850-1154): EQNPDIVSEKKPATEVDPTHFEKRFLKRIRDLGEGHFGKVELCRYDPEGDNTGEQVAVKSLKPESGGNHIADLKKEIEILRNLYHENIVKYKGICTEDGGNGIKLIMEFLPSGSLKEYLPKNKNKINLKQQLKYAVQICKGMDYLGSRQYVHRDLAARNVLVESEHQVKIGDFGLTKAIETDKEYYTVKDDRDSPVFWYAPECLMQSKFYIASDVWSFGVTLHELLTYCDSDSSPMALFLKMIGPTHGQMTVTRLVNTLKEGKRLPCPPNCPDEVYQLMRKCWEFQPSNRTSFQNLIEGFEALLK

IC50 [1] [nM]	IC50 [2] [nM]	Structure (SMILES)
501 to 1000	> 1000	CN(C)C(=O)C1CN(Cc2ccc(-c3cccc4nc(NC(=O)C5CC5)nn34)cc2)C1 [Compound 299, 1-{4-[2-(Cyclopropanecarbonyl-amino)-[1,2,4]triazolo[1,5-a]pyridin-5-yl]-benzyl}-azetidine-3-carboxylic acid dimethylamide]
> 1000	> 1000	O=C(Nc1nc2cccc(-c3ccc(CN4CC(N5CCOCC5)C4)cc3)n2n1)C1CC1 [Compound 300, Cyclopropanecarboxylic acid {5-[4-(3-morpholin-4-yl-azetidin-1-ylmethyl)-phenyl]-[1,2,4]triazolo[1,5-a]pyridin-2-yl}-amide]
> 1000	> 1000	CC(=O)N(C)C1CN(Cc2ccc(-c3cccc4nc(NC(=O)C5CC5)nn34)cc2)C1 [Compound 283, Cyclopropanecarboxylic acid (5-{4-[3-(acetyl-methyl-amino)-azetidin-1-ylmethyl]-phenyl}-[1,2,4]triazolo[1,5-a]pyridin-2-yl)-amide]
101 to 500	> 1000	CC(C)(C)OC(=O)NC1CN(Cc2ccc(-c3cccc4nc(NC(=O)C5CC5)nn34)cc2)C1 [Compound 279, (1-{4-[2-(Cyclopropanecarbonyl-amino)-[1,2,4]triazolo[1,5-a]pyridin-5-yl]-benzyl}-azetidin-3-yl)-carbamic acid tert-butyl ester]
101 to 500	501 to 1000	NC(=O)C1CCN(C(=O)c2ccc(-c3cccc4nc(NC(=O)C5CC5)nn34)cc2)CC1 [Compound 274, 1-{4-[2-(Cyclopropanecarbonyl-amino)-[1,2,4]triazolo[1,5-a]pyridin-5-yl]-benzoyl}-piperidine-4-carboxylic acid amide]
101 to 500	> 1000	CCN(CC)C1CCN(C(=O)c2ccc(-c3cccc4nc(NC(=O)C5CC5)nn34)cc2)C1 (stereo not drawn) [Compound 285, Cyclopropanecarboxylic acid {5-[4-(3-diethylamino-pyrrolidine-1-carbonyl)-phenyl]-[1,2,4]triazolo[1,5-a]pyridin-2-yl}-amide]
101 to 500	> 1000	CCN(CC)C(=O)C1CCCN(C(=O)c2ccc(-c3cccc4nc(NC(=O)C5CC5)nn34)cc2)C1 (stereo not drawn) [Compound 295, 1-{4-[2-(Cyclopropanecarbonyl-amino)-[1,2,4]triazolo[1,5-a]pyridin-5-yl]-benzoyl}-piperidine-3-carboxylic acid diethylamide]
101 to 500	101 to 500	O=C(Nc1nc2cccc(-c3ccc(CNc4cc(C(F)(F)F)ccc4F)cc3)n2n1)C1CC1 [Compound 248, Cyclopropanecarboxylic acid (5-{4-[(2-fluoro-5-trifluoromethyl-phenylamino)-methyl]-phenyl}-[1,2,4]triazolo[1,5-a]pyridin-2-yl)-amide]
101 to 500	101 to 500	CC1(C)COCCN1C(=O)c1ccc(-c2cccc3nc(NC(=O)C4CC4)nn23)cc1 [Compound 216, Cyclopropanecarboxylic acid {5-[4-(3,3-dimethyl-morpholine-4-carbonyl)-phenyl]-[1,2,4]triazolo[1,5-a]pyridin-2-yl}-amide]
101 to 500	501 to 1000	O=C(Nc1nc2cccc(-c3ccc(C(=O)N4CCC(O)(c5ccccc5)CC4)cc3)n2n1)C1CC1 [Compound 286, Cyclopropanecarboxylic acid {5-[4-(4-hydroxy-4-phenyl-piperidine-1-carbonyl)-phenyl]-[1,2,4]triazolo[1,5-a]pyridin-2-yl}-amide]
101 to 500	501 to 1000	CN1CCN(c2ccc(NC(=O)c3ccc(-c4cccc5nc(NC(=O)C6CC6)nn45)cc3)cn2)CC1 [Compound 205, 4-[2-(Cyclopropanecarbonyl-amino)-[1,2,4]triazolo[1,5-a]pyridin-5-yl]-N-[6-(4-methyl-piperazin-1-yl)-pyridin-3-yl]-benzamide]
101 to 500	101 to 500	O=C(Nc1nc2cccc(-c3ccc(CN4CC(F)(F)C4)cc3)n2n1)C1CC1 [Compound 315, Cyclopropanecarboxylic acid {5-[4-(3,3-difluoro-azetidin-1-ylmethyl)-phenyl]-[1,2,4]triazolo[1,5-a]pyridin-2-yl}-amide]
101 to 500	101 to 500	O=C1CN(Cc2ccc(-c3cccc4nc(NC(=O)C5CC5)nn34)cc2)CCN1 [Compound 311, Cyclopropanecarboxylic acid {5-[4-(3-oxo-piperazin-1-ylmethyl)-phenyl]-[1,2,4]triazolo[1,5-a]pyridin-2-yl}-amide]
> 1000	> 1000	CCN(CC)C1CCN(Cc2ccc(-c3cccc4nc(NC(=O)C5CC5)nn34)cc2)CC1 [Compound 247, Cyclopropanecarboxylic acid {5-[4-(4-diethylamino-piperidin-1-ylmethyl)-phenyl]-[1,2,4]triazolo[1,5-a]pyridin-2-yl}-amide]
> 1000	> 1000	CN(C)CC1CN(Cc2ccc(-c3cccc4nc(NC(=O)C5CC5)nn34)cc2)C1 [Compound 298, Cyclopropanecarboxylic acid {5-[4-(3-dimethylaminomethyl-azetidin-1-ylmethyl)-phenyl]-[1,2,4]triazolo[1,5-a]pyridin-2-yl}-amide]
101 to 500	501 to 1000	O=C(Nc1nc2cccc(-c3ccc(CN4CCC(O)CC4)cc3)n2n1)C1CC1 [Compound 242, Cyclopropanecarboxylic acid {5-[4-(4-hydroxy-piperidin-1-ylmethyl)-phenyl]-[1,2,4]triazolo[1,5-a]pyridin-2-yl}-amide]
101 to 500	501 to 1000	CC(=O)N1CCN(C(=O)c2ccc(-c3cccc4nc(NC(=O)C5CC5)nn34)cc2)CC1 [Compound 220, Cyclopropanecarboxylic acid {5-[4-(4-acetyl-piperazine-1-carbonyl)-phenyl]-[1,2,4]triazolo[1,5-a]pyridin-2-yl}-amide]
101 to 500	501 to 1000	CC(=O)NC1CCCN(C(=O)c2ccc(-c3cccc4nc(NC(=O)C5CC5)nn34)cc2)C1 (stereo not drawn) [Compound 296, Cyclopropanecarboxylic acid {5-[4-(3-acetylamino-piperidine-1-carbonyl)-phenyl]-[1,2,4]triazolo[1,5-a]pyridin-2-yl}-amide]
101 to 500	501 to 1000	CC(C)(O)C1CCN(Cc2ccc(-c3cccc4nc(NC(=O)C5CC5)nn34)cc2)CC1 [Compound 243, Cyclopropanecarboxylic acid (5-{4-[4-(1-hydroxy-1-methyl-ethyl)-piperidin-1-ylmethyl]-phenyl}-[1,2,4]triazolo[1,5-a]pyridin-2-yl)-amide]
101 to 500	> 1000	O=C(Nc1nc2cccc(-c3ccc(C(=O)N4CCCC(C(=O)N5CCCCC5)C4)cc3)n2n1)C1CC1 (stereo not drawn) [Compound 290, Cyclopropanecarboxylic acid (5-{4-[3-(piperidine-1-carbonyl)-piperidine-1-carbonyl]-phenyl}-[1,2,4]triazolo[1,5-a]pyridin-2-yl)-amide]
101 to 500	501 to 1000	O=C(Nc1nc2cccc(-c3ccc(CNc4ccc(N5CCOCC5)nc4)cc3)n2n1)C1CC1 [Compound 237, Cyclopropanecarboxylic acid (5-{4-[(6-morpholin-4-yl-pyridin-3-ylamino)-methyl]-phenyl}-[1,2,4]triazolo[1,5-a]pyridin-2-yl)-amide]
101 to 500	101 to 500	O=C(Nc1nc2cccc(-c3ccc(CN4C[C@@H]5C[C@H]4CO5)cc3)n2n1)C1CC1 [Compound 230, Cyclopropanecarboxylic acid (5-{4-[(1S,4S)-1-(2-oxa-5-aza-bicyclo[2.2.1]hept-5-yl)methyl]-phenyl}-[1,2,4]triazolo[1,5-a]pyridin-2-yl)-amide]
101 to 500	501 to 1000	O=C(Nc1nc2cccc(-c3ccc(CNC(=O)N4CCOCC4)cc3)n2n1)C1CC1 [Compound 309, Morpholine-4-carboxylic acid 4-[2-(cyclopropanecarbonyl-amino)-[1,2,4]triazolo[1,5-a]pyridin-5-yl]-benzylamide]
> 1000	> 1000	CN(C)C(=O)C1CN(C(=O)Cc2ccc(-c3cccc4nc(NC(=O)C5CC5)nn34)cc2)C1 [Compound 324, 1-(2-{4-[2-(Cyclopropanecarbonyl-amino)-[1,2,4]triazolo[1,5-a]pyridin-5-yl]-phenyl}-acetyl)-azetidine-3-carboxylic acid dimethylamide]
101 to 500	> 1000	O=C(Nc1nc2cccc(-c3ccc(CN4CC[C@H](O)C4)cc3)n2n1)C1CC1 [Compound 305, Cyclopropanecarboxylic acid {5-[4-((S)-3-hydroxy-pyrrolidin-1-ylmethyl)-phenyl]-[1,2,4]triazolo[1,5-a]pyridin-2-yl}-amide]
101 to 500	501 to 1000	O=C(Nc1nc2cccc(-c3ccc(C(=O)N4C[C@@H]5C[C@H]4CO5)cc3)n2n1)C1CC1 [Compound 217, Cyclopropanecarboxylic acid {5-[4-((1S,4S)-2-oxa-5-aza-bicyclo[2.2.1]heptane-5-carbonyl)-phenyl]-[1,2,4]triazolo[1,5-a]pyridin-2-yl}-amide]
101 to 500	101 to 500	CC1(C)COCCN1Cc1ccc(-c2cccc3nc(NC(=O)C4CC4)nn23)cc1 [Compound 213, Cyclopropanecarboxylic acid {5-[4-(3,3-dimethyl-morpholin-4-ylmethyl)-phenyl]-[1,2,4]triazolo[1,5-a]pyridin-2-yl}-amide]
